Where no end group is shown, it is not given here.
Tested on: EL-4 cells labeled with 51Cr and pulsed with the peptide Flu366-374
Settings: administered alone using the osmotic pump (100 µg peptide or 10^5 U IFN-α, subcutaneous, 3-day release); spleen 7 days after administration, 5 days re-stimulation; Fig. 1(A)

Sequence: ASNESMETM [peptide, Ala-Ser-Asn-Glu-Ser-Met-Glu-Thr-Met]
- peptide-specific CTL induction (cytotoxic activity for peptide-pulsed EL-4 cells): no peptide-specific CTL was induced

From patent EP1074267B1, “Induction of antigen-specific T cells by interferon” (Dainippon Sumitomo Pharma Co., Ltd., priority 1999, dated 2001)
